Measured values as given in patent US8802597B2, “Herbicidal pyrimidines” (E I du Pont de Nemours and Company, priority 2003, dated 2014).
Read-outs that look alike come from different tables or passages of the source.

Key:
Test in all cases: Test C pre/postemergence
Format in all cases: in vivo
[1] = tested on: Surinam grass (Brachiaria decumbens); settings: Urochloa decumbens; for pest or weed control at 125 g/ha: 125 g ai/ha; for pest or weed control at 31 g/ha: 31 g ai/ha; for pest or weed control at 62 g/ha: 62 g ai/ha; for pest or weed control at 250 g/ha: 250 g ai/ha
Summary of the method: (§1)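 Greenhouse herbicide screen, visual readout. Compound in solvent/surfactant applied preemergence at planting or postemergence to 1- to 4-leaf plants; assessed at 12–14 days on a 0–100 control scale.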

[2] = tested on: bermudagrass (Cynodon dactylon); settings: Cynodon dactylon; for pest or weed control at 31 g/ha: 31 g ai/ha; for pest or weed control at 62 g/ha: 62 g ai/ha; for pest or weed control at 125 g/ha: 125 g ai/ha; for pest or weed control at 125 g/ha / pest or weed control at 250 g/ha: scale 0 to 100; for pest or weed control at 250 g/ha: 250 g ai/ha
Summary of the method: as §1

[3] = tested on: cocklebur (Xanthium strumarium); settings: Xanthium strumarium; for pest or weed control at 31 g/ha: 31 g ai/ha; for pest or weed control at 125 g/ha: 125 g ai/ha; for pest or weed control at 250 g/ha: 250 g ai/ha
Summary of the method: as §1

[4] = tested on: common (oilseed) sunflower (Helianthus annuus); settings: Helianthus annuus, pre-emergence, Preemergence, read-out: Plant response rating, Sunflower
Summary of the method: as §1

[5] = tested on: common ragweed (Ambrosia elatior); settings: Ambrosia artemisiifolia; for pest or weed control at 31 g/ha: 31 g ai/ha; for pest or weed control at 62 g/ha: 62 g ai/ha; for pest or weed control at 125 g/ha: 125 g ai/ha; for pest or weed control at 250 g/ha: 250 g ai/ha
Summary of the method: as §1

[6] = tested on: corn (Zea mays); settings: Zea mays; for Corn plant response rating (crop injury, 0 = no effect, 100 = complete kill) at 31 g/ha: 31 g ai/ha; for Corn plant response rating (crop injury, 0 = no effect, 100 = complete kill) at 62 g/ha: 62 g ai/ha; for Corn plant response rating (crop injury, 0 = no effect, 100 = complete kill) at 250 g/ha: 250 g ai/ha, scale 0 to 100
Summary of the method: as §1

[7] = tested on: eastern black nightshade (Solanum ptycanthum); settings: Solanum, pre-emergence, Preemergence, 31 g ai/ha; scale 0 to 100, 0 no effect, 100 complete control; read-out: Plant response rating, Nightshade
Summary of the method: as §1

[8] = post-emergence, Postemergence, scale 0 to 100 (0 no effect, 100 complete control), read-out: Surinam Grass plant response rating
[9] = pre-emergence, Preemergence, scale 0 to 100, 0 no effect, 100 complete control, read-out: Plant response rating, Surinam Grass
[10] = pre-emergence, Preemergence, scale 0 to 100, read-out: Plant response rating, Surinam Grass
[11] = post-emergence, Postemergence, read-out: Plant response rating, Bermudagrass
[12] = pre-emergence, Preemergence, scale 0 to 100, 0 no effect, 100 complete control, read-out: Plant response rating, Bermudagrass
[13] = pre-emergence, Preemergence, read-out: Plant response rating, Bermudagrass
[14] = pre-emergence, Preemergence, scale 0 to 100, read-out: Plant response rating, Cocklebur
[15] = post-emergence, Postemergence, scale 0 to 100 (0 no effect, 100 complete control), read-out: Ragweed plant response rating
[16] = pre-emergence, Preemergence, scale 0 to 100, 0 no effect, 100 complete control, read-out: Plant response rating, Ragweed
[17] = pre-emergence, Preemergence, scale 0 to 100, read-out: Plant response rating, Ragweed
[18] = pre-emergence, Preemergence, scale 0 to 100, 0 no effect, 100 complete control, read-out: Plant response rating, Corn

COC(=O)c1nc(C2CC2)nc(N)c1Br [Compound 2, methyl 6-amino-5-bromo-2-cyclopropyl-4-pyrimidinecarboxylate]
0%: pest or weed control at 31 g/ha ([1]; post-emergence, Postemergence, read-out: Plant response rating (scale of 0 to 100), Surinam Grass) | pest or weed control at 31 g/ha [1, 9] | pest or weed control at 62 g/ha [1, 9] | pest or weed control at 125 g/ha [1, 10] | pest or weed control at 250 g/ha [1, 10] | pest or weed control at 31 g/ha [2, 12] | pest or weed control at 62 g/ha [2, 12] | pest or weed control at 125 g/ha [2, 13] | pest or weed control at 250 g/ha [2, 13] | pest or weed control at 31 g/ha [5, 16] | pest or weed control at 62 g/ha [5, 16] | pest or weed control at 125 g/ha [5, 17] | pest or weed control at 250 g/ha [5, 17] | Corn plant response rating (crop injury, 0 = no effect, 100 = complete kill) at 31 g/ha [6, 18] | Corn plant response rating (crop injury, 0 = no effect, 100 = complete kill) at 62 g/ha [6, 18] | Corn plant response rating (crop injury, 0 = no effect, 100 = complete kill) at 250 g/ha ([6]; pre-emergence, Preemergence) | pest or weed control at 31 g/ha [7]
70%: pest or weed control at 250 g/ha ([1]; post-emergence, Postemergence, scale 0 to 100, read-out: Plant response rating, Surinam Grass) | pest or weed control at 125 g/ha [2, 11]
60%: pest or weed control at 62 g/ha ([2]; post-emergence, Postemergence, scale 0 to 100 (0 no effect, 100 complete control), read-out: Bermudagrass plant response rating) | pest or weed control at 31 g/ha ([3]; pre-emergence, Preemergence, scale 0 to 100, 0 no effect, 100 complete control, read-out: Plant response rating, Cocklebur)
95%: pest or weed control at 250 g/ha ([5]; post-emergence, Postemergence, scale 0 to 100, read-out: Plant response rating, Ragweed)
20%: pest or weed control at 31 g/ha ([4]; 31 g ai/ha, scale 0 to 100, 0 no effect, 100 complete control) | Corn plant response rating (crop injury, 0 = no effect, 100 = complete kill) at 125 g/ha ([6]; post-emergence, Postemergence, 125 g ai/ha, scale 0 to 100 (0 no effect, 100 complete control), read-out: Corn plant response rating)
85%: pest or weed control at 125 g/ha ([3]; post-emergence, Postemergence, scale 0 to 100 (0 no effect, 100 complete control), read-out: Cocklebur plant response rating) | pest or weed control at 250 g/ha ([3]; post-emergence, Postemergence, scale 0 to 100, read-out: Plant response rating, Cocklebur) | pest or weed control at 62 g/ha [5, 15]
30%: Corn plant response rating (crop injury, 0 = no effect, 100 = complete kill) at 250 g/ha ([6]; post-emergence, Postemergence)
90%: pest or weed control at 125 g/ha [5, 15]
80%: pest or weed control at 250 g/ha [2, 11] | pest or weed control at 125 g/ha [3, 14]
55%: pest or weed control at 62 g/ha [1, 8]
65%: pest or weed control at 125 g/ha [1, 8] | pest or weed control at 31 g/ha ([3]; post-emergence, Postemergence, read-out: Plant response rating (scale of 0 to 100), Cocklebur) | pest or weed control at 31 g/ha ([5]; post-emergence, Postemergence, read-out: Plant response rating (scale of 0 to 100), Ragweed)
15%: pest or weed control at 31 g/ha ([2]; post-emergence, Postemergence, read-out: Plant response rating (scale of 0 to 100), Bermudagrass) | Corn plant response rating (crop injury, 0 = no effect, 100 = complete kill) at 31 g/ha ([6]; post-emergence, Postemergence, read-out: Plant response rating (scale of 0 to 100), Corn) | Corn plant response rating (crop injury, 0 = no effect, 100 = complete kill) at 62 g/ha ([6]; post-emergence, Postemergence, scale 0 to 100 (0 no effect, 100 complete control), read-out: Corn plant response rating)
75%: pest or weed control at 62 g/ha ([3]; post-emergence, Postemergence, 62 g ai/ha, scale 0 to 100 (0 no effect, 100 complete control), read-out: Cocklebur plant response rating)
100%: pest or weed control at 250 g/ha [3, 14] | pest or weed control at 62 g/ha ([4]; 62 g ai/ha, scale 0 to 100, 0 no effect, 100 complete control) | pest or weed control at 125 g/ha ([4]; 125 g ai/ha, scale 0 to 100) | pest or weed control at 250 g/ha ([4]; 250 g ai/ha, scale 0 to 100)
